Test [1] deals with T1, Stx2A1 (Escherichia phage 933W (Bacteriophage 933W), UniProt P09385). Type of test: binding.
Test [2] concerns the target T1, Stx2A1. Nature of the test: biochemical. The class given is biochemical.
Test [3] addresses T2, RTA (Ricinus communis (Castor bean), UniProt P02879). The class given is binding.
Test [4] deals with T2, RTA. Put plainly: biochemical. Type of test: biochemical. To be noted: for inhibition at 50 µM: read-out: Percent inhibition at 50 μM.
For a further test, the target named is Stx2a holotoxin (Escherichia phage 933W (Bacteriophage 933W), UniProt P09385). Nature of the test: cell-based. Type of test: cell-based.
Chain of Stx2a holotoxin (P09385 23-319 limits assumed): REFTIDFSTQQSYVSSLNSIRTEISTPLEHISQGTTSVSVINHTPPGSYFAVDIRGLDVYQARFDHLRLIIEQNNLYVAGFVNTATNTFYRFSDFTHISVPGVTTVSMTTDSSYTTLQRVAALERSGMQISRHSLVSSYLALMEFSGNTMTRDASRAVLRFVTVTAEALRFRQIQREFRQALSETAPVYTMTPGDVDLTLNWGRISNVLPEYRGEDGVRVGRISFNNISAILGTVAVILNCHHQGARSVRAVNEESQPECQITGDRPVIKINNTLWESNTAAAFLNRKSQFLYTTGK
[5] abbreviates: read-out: % inhibition Stx2A1 in yeast ribosome.
[6] abbreviates: Vero, read-out: % Inhibition Stx2a depurination in Vero cell.

T1 sequence (P09385 23-272 limits assumed): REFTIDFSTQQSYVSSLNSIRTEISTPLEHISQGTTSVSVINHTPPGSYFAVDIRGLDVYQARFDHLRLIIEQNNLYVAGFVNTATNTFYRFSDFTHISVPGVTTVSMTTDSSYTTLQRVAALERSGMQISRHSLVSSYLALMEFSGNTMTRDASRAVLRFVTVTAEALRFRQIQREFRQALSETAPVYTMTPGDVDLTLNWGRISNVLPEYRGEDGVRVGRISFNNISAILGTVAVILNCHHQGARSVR

As a reminder, the Kd is the equilibrium constant for the complex coming apart. The term IC50 denotes the concentration needed to halve the response being measured. The low end stands for higher potency, the high end for lower potency. In turn, `O=C(O)c1ccc(-c2ccc(Cl)cc2)o1` registered a Kd at Stx2A1 [1] of 0.575 mM. Besides, the IC50 at Stx2A1 [2] was 194 µM.

For orientation: inhibition means how much of the control response was suppressed. Consider `Cc1ccc(-c2ccc(C(=O)O)o2)cc1`, for which the Kd at Stx2A1 [1] is 0.606 mM. In addition, at Stx2A1 [2] (setting [5]), the inhibition at 100 µM amounted to 64% and the inhibition at 200 µM came to 70%.

For the molecule `O=C(O)c1csc(-c2cccc(Cl)c2)n1`, on Stx2A1 [1], binding was put at a Kd of 0.579 mM. For the same molecule, at Stx2A1 [2] (setting [5]), the inhibition at 100 µM turned out to be 83% and the inhibition at 200 µM was 91%.

At Stx2A1 [1], `O=C(O)c1csc(-c2cccc(Cl)c2Cl)n1` had an equilibrium dissociation constant (Kd) of 0.487 mM. On Stx2A1 [2] (setting [5]), the inhibition at 100 µM was determined as 82% and the inhibition at 200 µM was determined as 62%.

In the case of `O=C(O)c1ccc(-c2ccccc2)s1` [CC10501, 5-phenylthiophene-2-carboxylic acid], at RTA [3], the “binding in the binding level screen” value is given as “bound RTA better than the positive controls”. Further, the “IC50 fold weaker than CC70601” value on RTA [4] worked out at 5.6 fold.

As for `O=C(O)c1ccc(Cc2cccs2)cc1` [CC70601, 4-(thien-2-ylmethyl) benzoic acid], the “binding in the binding level screen” value on RTA [3] was “bound RTA better than the positive controls”.

Consider `O=C(O)c1cc2c(s1)-c1ccccc1CC2` [PD00589, reference compound], for which the “inhibitory activity against Stx2A/Stx2A1 depurination in vitro” value at Stx2A1 [2] is “dose-dependent inhibition”. The “protection against depurination by Stx2a holotoxin in Vero cells” value at Stx2a holotoxin is “protected Vero cells against depurination”.

As to `Cc1ccccc1-c1ccc(C(=O)O)s1` [RU-NT-070], on RTA [3], the Kd came to 72 µM. For the same molecule, the IC50 against RTA [4] stood at 19 µM.

Regarding `Cc1cc(C)c(-c2ccc(C(=O)O)s2)c(C)c1` [RU-NT-075], the inhibition at 50 µM on RTA [4] came out at 45%.

On to `O=C(O)c1ccc(-c2cccc3c2OCC3)s1` [RU-NT-105], for which, at RTA [3], the equilibrium dissociation constant (Kd) turned out to be 1180 ± 193 µM. In addition, the inhibition at 100 µM on RTA [4] (read-out: Percent inhibition at 100 μM) amounted to 54 ± 7%.

As for `Cc1cccc(F)c1-c1ccc(C(=O)O)s1` [RU-NT-110], at RTA [3], the equilibrium dissociation constant (Kd) is 93 µM. Further, the inhibition at 50 µM on RTA [4] came out at 61%.

`COc1cccc(C)c1-c1ccc(C(=O)O)s1` [RU-NT-111] displayed a dissociation constant Kd at RTA [3] of 51 µM. Further, the inhibition at 50 µM at RTA [4] is 66%.

`Cc1cccc(O)c1-c1ccc(C(=O)O)s1` [RU-NT-113] registered a Kd at RTA [3] of 31 µM. Moreover, the inhibition at 50 µM on RTA [4] stood at 69%.

`O=C(O)c1cc2c(s1)-c1ccccc1CC2` [drawing 373] displayed an equilibrium dissociation constant (Kd) on Stx2A1 [1] of 0.629 mM. At Stx2A1 [2] (setting [5]), the inhibition at 50 µM was found to be 45%, the inhibition at 100 µM was 51% and the inhibition at 200 µM was determined as 80%. In addition, on Stx2a holotoxin (setting [6]), the inhibition at 250 µM was 18% and the inhibition at 500 µM came out at 36%.

Source of the values: patent publication US12427135B2 (priority 2019, dated 2025).
